Measurements as given in patent publication US9468670B2, “Melatonin-based treatment and diagnosis of bile duct disease” (Texas A&M University System, priority 2011, dated 2016).
Entries after “also recorded” stand apart in the source; their conditions may differ. Marks after values point to notes of the source that are not given here.

What was measured:
miR-34a = assay: miRNA expression in melatonin treated xenograft tumor tissues; settings: melatonin treatment in vivo
Experimental: Methods: miRNA expression in normal human cholangiocytes (HiBECs), and the CCA cell lines Mz-ChA-1 and TFK cells, as well as melatonin treated xenograft tumor tissues were evaluated using a hybridization-based miRNA microarray. The expression of selected mature miRNAs was also assessed by real-time PCR. The effect of selected miRNAs on cell growth and invasion was assessed using miRNA modulators to alter cellular expression. Cell migration and invasion through a matrigel layer was quantitated using commercial assays. BCL-2, period homolog 1 (PER1) and tissue inhibitor of metalloproteinases 3 (TIMP-3) mRNA expression was quantitated by real-time PCR analysis.

[1] = test system: large mouse cholangiocyte lines; assay: cAMP levels (RIA) in large mouse cholangiocyte lines; type: cell-based; settings: melatonin 10^−11 M for 5 minutes
From the text: The expression of MT1 and MT2 receptors in immortalized large cholangiocytes was first evaluated by immunofluorescence (Francis et al., 2008). Images were visualized using an Olympus IX-71 confocal microscope. For all immunoreactions, negative controls (with normal serum from the same species substituted for the primary antibody) were included. It was next evaluated by commercially available radioimmunoassay (RIA) kits ([…] et al., 1998; Kato et al., 1992; […] et al., 1999; […] et al., 2004) for cAMP levels ([…] et al., 1998; Kato et al., 1992; […] Shiu et al., 2010). […] […] et al., 1992; Ramirez-Rodriguez et al., 2009; […], 1999). […] Shiu et al., 2010) before evaluating by immunoblots (Francis et al., 2008) the expression of PCNA and the phosphorylation of PKA and EKR1/2.

Mz-ChA-1 cells = assay: Mz-ChA-1 cholangiocarcinoma xenograft in nude mice: tumor size and immunohistochemistry of tumor sections; type: in vivo, nude (nu/nu) mice
Experimental: AANAT expression was assessed in liver biopsy samples from CCA patients and controls by immunohistochemistry, and in non-malignant cholangiocytes and intra- and extrahepatic CCA lines by qPCR and immunoblots. Melatonin secretion was assessed in the supernatant of normal and CCA lines, and serum and bile from controls and CCA patients by EIA. In the CCA line Mz-ChA-1 stably overexpressing AANAT, the expression of AANAT, melatonin secretion, and CCA proliferation were studied after 48 hr of incubation. In in vivo studies, Mz-ChA-1 cells were injected Sub Q into the hind flanks of nu/nu mice. Tumors were allowed to develop and volumes were measured for 41 days during treatment with saline or melatonin (4 mg/kg BW, IP 3×wk). Tumors were analyzed for AANAT, PCNA, CK-19 and Bax by qPCR and immunoblots. Tumor tissue sections were analyzed for TUNEL, and staining for AANAT, PCNA and CK-19.
Experiments were performed to evaluate the in vivo effect of melatonin on the growth of cholangiocarcinoma cell lines implanted in the flanks of athymic mice (Francis H et al., 2009). Male BALB/c 6-wk-old nude (nu/nu) mice (Taconic Farms. Hudson, N.Y.) were kept in a temperature-controlled environment (20-22° C.) with 12-hr light-dark cycles, fed ad libitum standard mouse chow, and with free access to drinking water. Mz-ChA-1 cells (5×10^6) were suspended in 0.2 ml of extracellular matrix gel and injected subcutaneously in the rear flanks of the nude mice. After the establishment of the tumor (one week with a tumor size of ˜5 mm^3) mice (n=4) were treated with vehicle (5% ethanol in water) or melatonin (4 mg/kg BW, dissolved in 5% aqueous ethanol solution) (Sewerynek et al., 1995) by IP injections three times a week. Tumor variables were measured three times a week by an electronic caliper, and volume was determined as follows: tumor volume (mm^3)=0.5×[length (mm)×width (mm)×height (mm)]. The measurements started from the first week when the tumor mass was established. After 43 days of treatment, were anesthetized with sodium pentobarbital (50 mg/kg BW IP) and tumor tissues were harvested from the flanks of the mice. Heart, liver, and kidney tissues were collected for evaluation of organ damage by H&E staining of paraffin-embedded sections ([…]). All experiments were conducted under the guidelines of the Scott & White and Texas A&M HSC IACUC Committee. Tumors were allowed to grow until maximum allowable tumor burden was reached as set forth by the Scott & White and Texas A&M HSC IACUC tumor burden policy. Tumor tissues were fixed for 4 hr in 10% buffered formalin and embedded in low-temperature fusion paraffin. Subsequently, sections (4-5 mm) were stained: (i) with H & E for evaluation of necrosis (Francis et al., 2009); and (ii) for PCNA (a marker of proliferation) (Francis et al., 2009), cleaved caspase-3 (for measurement of apoptosis) (Arai et al., 2005), AANAT, ASMT, melatonin, MT1 and MT2 by immunohistochemistry (Francis et al., 2009). Negative controls were obtained by staining the tumor sections with non-immune serum with the omission of the primary antibody. Semiquantitative analysis for these markers was evaluated by image-analysis software, Image-Pro Plus (Media Cybernetics, Silver Springs, Md.) (Lejeune et al., 2008). Three randomly chosen fields were calculated for statistics.

AANAT = target: T1, AANAT (Rattus norvegicus, UniProt Q64666); assay: Melatonin levels in serum and cholangiocyte supernatant (ELISA) of Morpholino-treated rats; type: in vivo; settings: normal rats
T1 construct: the expression of AANAT in liver sections and cholangiocytes from the selected groups of animals; from tissue; host or cells: Male Fischer 344 rats: liver sections, total liver, isolated cholangiocytes, pineal gland, small intestine, serum
T1 sequence (Q64666 whole entry): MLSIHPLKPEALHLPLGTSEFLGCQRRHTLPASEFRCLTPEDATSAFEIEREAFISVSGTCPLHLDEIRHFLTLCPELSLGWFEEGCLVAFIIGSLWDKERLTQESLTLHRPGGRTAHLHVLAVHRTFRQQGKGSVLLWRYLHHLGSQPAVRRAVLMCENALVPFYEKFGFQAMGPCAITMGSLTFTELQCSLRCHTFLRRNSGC
Experimental: In separate experiments, normal rats treated with Vivo-Morpholino sequences of AANAT (5'-[…] NO:1), to reduce the biliary expression of AANAT) or Morpholino mismatched (5'-[…] NO:2)) (Gene Tools LCC) (1 mg/Kg BW/day) for 1 week via an implanted portal vein catheter. Serum, liver tissue, cholangiocytes, kidney, spleen, small intestine, stomach and heart were collected. Since our goal was to knock-down AANAT expression in the liver without inhibiting AANAT expression in other organs, we used a lower dose (1 mg/Kg/day) of Vivo-Morpholino than that described in the original study (3.0 mg/kg/day (Arora et al., 2002). This approach minimizes the amount of Vivo-Morpholino that circulates outside of the liver after slow infusion into the portal vein. See below for the surgical procedure for the implantation of the portal vein catheter by which AANAT Vivo-Morpholino or Morpholino mismatched was administered. Melatonin levels in serum and medium of primary cultures of isolated cholangiocytes were determined by ELISA kits (Genway, San Diego, Calif.). Supernatants were obtained from cholangiocytes (1×10^7 cells/ml) that were incubated for 6 hours at 37° C. (Glaser et al., 2008).

[2] = tumor sections, semiquantitative immunohistochemistry

Molecule	miR-34a expression in Mz-ChA-1 xenograft tumor (miR-34a)	cAMP levels [1]	Tumor size / xenograft tumor growth (Mz-ChA-1 cells; nude mice, melatonin 4 mg/kg BW IP three times a week vs. vehicle)	Necrosis (percentage of the whole field of section) (Mz-ChA-1 cells; tumor sections, H&E, 4 mg/kg BW IP three times a week)	AANAT (Mz-ChA-1 cells; [2])	ASMT (Mz-ChA-1 cells; [2])	Cleaved caspase-3 (Mz-ChA-1 cells; [2])	MT1 (Mz-ChA-1 cells; [2])	MT2 (Mz-ChA-1 cells; [2])	Melatonin (immunoreactivity) (Mz-ChA-1 cells; [2])	PCNA (Mz-ChA-1 cells; [2])	Melatonin supernatant (AANAT; cholangiocyte supernatant, 6 hours at 37° C., 1 mg/Kg BW/day for 1 week)	Melatonin serum (AANAT; 1 mg/Kg BW/day for 1 week via portal vein catheter)
COc1ccc2[nH]cc(CCNC(C)=O)c2c1 [melatonin]	significant reduction	decreased	significant decrease; also recorded: significantly reduced	>75%^ψ	1584.52 ± 127	46051.09 ± 13063.04	4490.66 ± 1053.52	1847.76 ± 419.9	1417.96 ± 425.71	41231.48 ± 7634.43	0.25 ± 0.09 (% of total % of total nucleus		
AANAT Vivo-Morpholino: Vivo-Morpholino sequence of AANAT 5′-GTTCCCCAGCTTTGGAAGTGGTCCC (SEQ ID NO:1), to reduce the biliary expression of AANAT (all phosphorodiamidate morpholino (PMO); Vivo-Morpholino delivery moiety attached, position not given here, further chemistry not fully specified)												3.2 ± 0.2^a pg/ml	58.4 ± 8.7^a pg/ml
